From patent US20240138417A1, “TRICHODERMA-BASED BIOENHANCER FOR FOLIAR APPLICATION IN PLANTS” (YPF TECNOLOGÍA S.A., priority 2022, published 2024)

Key:
[1] = tested on: Arabidopsis thaliana seedlings; assay: Auxin activity, root growth bioassay in A. thaliana seedlings; assay type: in vivo; conditions: 4-days old seedlings, MS-Agar; formulation 0.1, 1, 10, 25% v/v; IAA 1, 10 and 100 nM
Protocol: Auxin Activity • Auxin activity was determined by measuring the growth of the main root in seedlings of Arabidopsis thaliana, and the amount of side roots to estimate the root density according to Iglesias et al. (2014). Briefly, 4-days old A. thaliana seedlings were grown in a MS-Agar medium supplemented with different concentrations of the formulation of Example 5 (0.1, 1, 10, 25% v/v). As reference, different concentrations of indole-acetic acid (IAA) were used (1, 10 and 100 nM). Three independent assays were carried out, with 8 seedlings per treatment (N=24).

[2] = tested on: cucumber cotyledons (Cucumis sativus var. Runner); assay: Cytokinin activity, cucumber cotyledons greening bioassay (chlorophyll content); conditions: incubated 20 h, then light 16 hs; SPAD detector and acetone extraction
Protocol: Cytokinin Activity • Cytokinin activity was determined by quantifying the chlorophyll content in cucumber cotyledons (Fletcher et al., 1982). Briefly, cucumber (Cucumis sativus var. Runner) seeds were germinated and grown in darkness for 7 days. Then, the cotyledons were cut and incubated for 20 h under different concentrations of the formulation of Example 5 (0.1, 1, 10 and 100% v/v). As a positive control, different concentrations of a cytokinin analog, kinetin, were used (0.01, 0.1, 1 and 10 μg/ml). Then the cotyledons were exposed to light for 16 hs, and the chlorophyll content was determined by two methods: by means of a manual SPAD detector (Chlorophyll meter SPAD-502, Konica Minolta), and by extracting the chlorophyll with acetone (Arnon 1949). Three independent assays were carried out, with 8 cotyledons per treatment (N=24).

O=C(O)Cc1c[nH]c2ccccc12 [IAA, indole-acetic acid]
growth of the main root [1]: dose-dependent shortening of the main root
number of side roots [1]: increase in the number of side roots

c1coc(CNc2ncnc3[nH]cnc23)c1 [kinetin]
greening of cotyledons (chlorophyll content) [2]: stimulated the greening of the etiolated cotyledons depending on the dose
